Measured values taken from US20190106747A1, “DRUGS, PHARMACOGENOMICS AND BIOMARKERS FOR ACIVE LONGEVITY” (Indiana University Research and Technology Corporation, priority 2016, published 2019).

Columns and labels:
C. elegans [1] = test: Survival after paraquat (oxidative stress) in Mianserin-treated C. elegans; assay type: in vivo; conditions: three independent alleles (e362, e1197, e1260) of ANK3/unc-44; 50 μM Mianserin from day 1 adult, paraquat five days later
Method: FIG. 4A are graphs depicting Mianserin-induced protection from oxidative stress requires ANK3/unc-44, the C. elegans homolog of mammalian ANK3. Wild-type (wt) N2 strain (dotted lines) or ANK3/unc-44 mutants (bold lines), at day 1 adult stage, were treated with water (black) or 50 μM Mianserin (red), followed by increasing concentrations of paraquat five days later. Survival of animals was determined 24 h after paraquat addition and plotted in [%] (Y-axis) as a function of paraquat concentration [mM] (X-axis). Parallel wt (N2) control experiments (dotted lines) are shown for each graph. […] All error bars show S.E.M for 3 to 4 independent experiments.

C. elegans [2] = test: Lifespan of C. elegans treated with Mianserin; assay type: in vivo; conditions: for increase in lifespan: 50 μM Mianserin vs water
Method: FIG. 4B is a graph depicting lifespan curves of wt and unc-44(e362) animals treated with water or 50 μM Mianserin. […] (Y-axis) as a function of time [days] (X-axis). Dotted lines represent wt (N2) animals and bold lines represent unc-44(e362) mutants. Black: solvent control; red: Mianserin 50 μM. […] Asterisks indicate P values (**; P<0.01, ***P<0.001).
FIG. 4C is a graph depicting mean increase in lifespan [%] (Y-axis) as a function of Mianserin concentration [μM] (X-axis). Solid red line represents unc-44(e362) animals. Dotted red line represents the parallel control experiment of Mianserin-treated wt (N2) animals. Error bars show standard deviation for experimental replicates.

PLA2G6 = biological target: T1, PLA2G6 (Homo sapiens, UniProt O60733); conditions: existing drug targeting top longevity biomarker; cited from earlier work
T1 sequence (O60733 1-806): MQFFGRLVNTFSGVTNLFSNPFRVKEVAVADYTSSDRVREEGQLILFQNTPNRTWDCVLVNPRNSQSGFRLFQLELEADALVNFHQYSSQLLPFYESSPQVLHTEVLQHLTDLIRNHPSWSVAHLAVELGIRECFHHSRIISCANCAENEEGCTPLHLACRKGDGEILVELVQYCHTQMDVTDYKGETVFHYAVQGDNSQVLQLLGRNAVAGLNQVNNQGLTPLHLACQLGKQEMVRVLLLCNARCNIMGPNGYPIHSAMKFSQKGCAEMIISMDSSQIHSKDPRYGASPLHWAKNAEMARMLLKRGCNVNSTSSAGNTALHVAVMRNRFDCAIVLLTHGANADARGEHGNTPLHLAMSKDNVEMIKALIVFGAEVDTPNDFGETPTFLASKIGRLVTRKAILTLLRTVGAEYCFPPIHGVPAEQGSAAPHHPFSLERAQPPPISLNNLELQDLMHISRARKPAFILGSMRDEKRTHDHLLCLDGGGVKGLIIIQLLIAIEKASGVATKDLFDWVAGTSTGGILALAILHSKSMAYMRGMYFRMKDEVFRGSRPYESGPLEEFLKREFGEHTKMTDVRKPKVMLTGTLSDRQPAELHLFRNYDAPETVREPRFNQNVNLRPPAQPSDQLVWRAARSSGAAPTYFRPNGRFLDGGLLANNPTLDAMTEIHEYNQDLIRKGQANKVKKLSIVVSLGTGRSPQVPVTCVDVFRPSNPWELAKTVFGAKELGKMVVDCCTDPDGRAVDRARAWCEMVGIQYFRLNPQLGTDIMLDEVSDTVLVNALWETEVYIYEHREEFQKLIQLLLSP

POLH = conditions: Table 4 universal biomarkers; longevity direction of change I; cited from earlier work
ANK3 = conditions: amygdala of a mouse model of mood disorders and stress; previous work; cited from earlier work
NAV1 = conditions: Table 4 universal biomarkers; longevity direction of change D; cited from earlier work
worms = conditions: direct prior experimental evidence; cited from earlier work
ABCC1 = ABCC1 (Homo sapiens, UniProt P33527); conditions: existing drug targeting top longevity biomarker; cited from earlier work
Chain of ABCC1 (P33527 whole entry): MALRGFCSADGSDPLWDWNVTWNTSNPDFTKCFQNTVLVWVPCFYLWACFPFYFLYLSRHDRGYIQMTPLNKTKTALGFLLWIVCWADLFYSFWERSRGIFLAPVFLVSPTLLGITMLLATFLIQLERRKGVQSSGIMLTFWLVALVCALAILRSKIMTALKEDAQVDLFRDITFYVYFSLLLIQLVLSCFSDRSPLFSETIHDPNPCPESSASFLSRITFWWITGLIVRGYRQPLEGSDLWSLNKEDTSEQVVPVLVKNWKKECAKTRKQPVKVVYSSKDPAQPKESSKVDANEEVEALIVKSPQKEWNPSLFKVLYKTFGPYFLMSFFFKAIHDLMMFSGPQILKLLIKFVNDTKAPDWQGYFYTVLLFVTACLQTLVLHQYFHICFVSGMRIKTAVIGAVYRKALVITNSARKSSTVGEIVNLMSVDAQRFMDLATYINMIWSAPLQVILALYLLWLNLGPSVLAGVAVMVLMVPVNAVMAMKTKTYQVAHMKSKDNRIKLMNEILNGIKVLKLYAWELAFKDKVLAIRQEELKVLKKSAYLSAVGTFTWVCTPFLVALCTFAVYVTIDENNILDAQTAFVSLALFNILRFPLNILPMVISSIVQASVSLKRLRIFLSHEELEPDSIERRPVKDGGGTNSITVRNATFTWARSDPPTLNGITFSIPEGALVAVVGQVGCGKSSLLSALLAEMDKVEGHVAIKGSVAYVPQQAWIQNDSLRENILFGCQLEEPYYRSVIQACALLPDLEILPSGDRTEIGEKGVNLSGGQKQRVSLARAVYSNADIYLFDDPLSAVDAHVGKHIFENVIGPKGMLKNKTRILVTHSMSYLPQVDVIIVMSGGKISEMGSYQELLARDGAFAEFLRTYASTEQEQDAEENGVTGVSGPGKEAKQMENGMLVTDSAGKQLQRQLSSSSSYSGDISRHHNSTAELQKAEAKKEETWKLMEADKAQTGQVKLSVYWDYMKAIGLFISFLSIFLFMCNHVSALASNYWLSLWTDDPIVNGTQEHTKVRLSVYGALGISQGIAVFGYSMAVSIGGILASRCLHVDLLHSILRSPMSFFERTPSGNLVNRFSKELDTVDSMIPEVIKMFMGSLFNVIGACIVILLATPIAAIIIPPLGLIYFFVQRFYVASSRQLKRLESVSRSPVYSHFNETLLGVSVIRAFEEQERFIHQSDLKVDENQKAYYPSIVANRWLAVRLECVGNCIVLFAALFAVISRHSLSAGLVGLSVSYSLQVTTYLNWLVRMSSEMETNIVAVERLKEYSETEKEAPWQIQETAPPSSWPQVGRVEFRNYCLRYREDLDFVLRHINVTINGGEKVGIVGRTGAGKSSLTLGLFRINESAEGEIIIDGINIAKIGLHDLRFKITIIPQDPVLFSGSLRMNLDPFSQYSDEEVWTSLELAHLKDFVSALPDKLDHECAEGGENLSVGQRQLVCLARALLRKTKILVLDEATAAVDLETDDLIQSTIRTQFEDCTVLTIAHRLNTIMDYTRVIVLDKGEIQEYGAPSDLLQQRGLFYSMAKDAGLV

MME = conditions: Table 5 biomarkers in males; longevity direction of change D; cited from earlier work

Compound: CN1CCN2c3ccccc3Cc3ccccc3C2C1 (racemic) [Mianserin, (±)-2-methyl-1,2,3,4,10,14b-hexahydrodibenzo[c,f]pyrazino[1,2-a]azepine]
- resistance to oxidative stress (survival 24 h after paraquat) (C. elegans [1]): failed to increase resistance to oxidative stress
- lifespan extension as a function of Mianserin concentration (C. elegans [2]; ANK3/unc-44(e362) mutants, any Mianserin concentration): No lifespan extension
- increase in lifespan (C. elegans [2]; unc-44(e362) mutant animals): −9%
- increase in lifespan (C. elegans [2]; wild-type (N2) animals): +40%

Compound: CCN(CC)CCCC(C)Nc1c2ccc(Cl)cc2nc2ccc(OC)cc12 (racemic) [quinacrine, (RS)—N′-(6-Chloro-2-methoxy-acridin-9-yl)-N,N-diethylpentane-1,4-diamine]
- effect on PLA2G6 (PLA2G6): inhibiting

Compound: NC(=O)N1c2ccccc2C=Cc2ccccc21 [Carbamazepine]
- POLH modulated by drug in the same direction as longevity (POLH): Carbamazepine

Compound: CC/C=C\C/C=C\C/C=C\C/C=C\C/C=C\C/C=C\CCC(=O)O [DHA]
- ANK3 expression (ANK3): decreased

Compound: COc1ccc(C(CN(C)C)C2(O)CCCCC2)cc1 (centres unmarked) [Venlafaxine]
- NAV1 modulated by drug in the same direction as longevity (NAV1): Venlafaxine

Compound: C[C@]12CC[C@@H]3c4ccc(O)cc4CC[C@H]3[C@@H]1CC[C@@H]2O [estradiol, (8R,9S,13S,14S,17S)-13-methyl-6,7,8,9,11,12,14,15,16,17-decahydrocyclopenta[a]phenanthrene-3,17-diol]
- lifespan (worms): extending lifespan

Compound: O=C1C(CC[S+]([O-])c2ccccc2)C(=O)N(c2ccccc2)N1c1ccccc1 (centres unmarked) [sulfinpyrazone, 1,2-diphenyl-4-[2-(phenylsulfinyl)ethyl]pyrazolidine-3,5-dione]
- effect on ABCC1 (ABCC1): inhibiting

Compound: sacubitril/valsartan
- MME modulated by drug in the same direction as longevity (MME): sacubitril/
